Results: US20260001928A1 (CORTERIA PHARMACEUTICALS, priority 2022, published 2026)
*1 amine or outer side, *2 acyl side, *3 side chain or, on linkers, in order; H or OH if unused. Where a SMILES comes first, the peptide text is derived from it. Side-chain parts run from the residue outwards. [ ]: non-standard residue; d: D form. The star is where a group is joined. C20 diacid = O=C(O)CCCCCCCCCCCCCCCCCCC(=O)*; C18 diacid = O=C(O)CCCCCCCCCCCCCCCCC(=O)*; C16 diacid = O=C(O)CCCCCCCCCCCCCCC(=O)*; γGlu = O=C(O)[C@H](CCC(=O)[*:2])N[*:1]; NMeI = CC[C@H](C)[C@H](NC)C(=O)O; Api = NC1(C(=O)O)CCNCC1; Dap = NC[C@H](N)C(=O)O; AEEA = NCCOCCOCC(=O)O; Aib = CC(C)(N)C(=O)O

Experiments:
human CRF2a receptor = target: T1, human CRF2a receptor (Homo sapiens, UniProt Q13324); test: Activity at human CRF2a receptor, cAMP functional assay in TeloHEAC cells; assay type: cell-based; conditions: TeloHEAC cells stably expressing human CRF2a receptor, relative to urocortin 2 (100 nM = 100%)
T1 construct: expressed in transfected cells; host or cells: TeloHEAC cells
T1 sequence (Q13324 1-411): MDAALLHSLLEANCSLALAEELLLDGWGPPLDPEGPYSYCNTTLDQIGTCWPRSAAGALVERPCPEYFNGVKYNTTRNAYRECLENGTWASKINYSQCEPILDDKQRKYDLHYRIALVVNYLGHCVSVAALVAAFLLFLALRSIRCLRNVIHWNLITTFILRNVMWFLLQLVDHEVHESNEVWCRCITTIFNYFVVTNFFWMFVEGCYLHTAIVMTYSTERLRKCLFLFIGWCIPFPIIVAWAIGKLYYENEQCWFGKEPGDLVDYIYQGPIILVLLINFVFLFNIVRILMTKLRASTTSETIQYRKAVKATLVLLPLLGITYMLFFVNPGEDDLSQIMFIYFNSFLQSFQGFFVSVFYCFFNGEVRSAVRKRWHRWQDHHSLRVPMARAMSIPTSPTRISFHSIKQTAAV
In short: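 TeloHEAC cells stably expressing human CRF2a (10000 cells/well) were treated with 16-point 1:2 compound dilutions in HBSS/20 mM HEPES with IBMX for 30 min at 37° C. cAMP was read by HTRF (665/620 nm ratio). EC50 was the concentration giving 50% activation, with 100 nM urocortin 2 set as 100%.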

CFR1R receptor = target: T2, CFR1R receptor (Homo sapiens, UniProt P34998); test: Activity at anti-target CFR1R receptor, cAMP assay in CRF1R-overexpression CHO-K1 cells; assay type: cell-based; conditions: 100% = Sauvagine at 100 nM; for EC50: cAMP
T2 construct: host or cells: CHO-K1 (clone 2)
T2 sequence (P34998 24-415): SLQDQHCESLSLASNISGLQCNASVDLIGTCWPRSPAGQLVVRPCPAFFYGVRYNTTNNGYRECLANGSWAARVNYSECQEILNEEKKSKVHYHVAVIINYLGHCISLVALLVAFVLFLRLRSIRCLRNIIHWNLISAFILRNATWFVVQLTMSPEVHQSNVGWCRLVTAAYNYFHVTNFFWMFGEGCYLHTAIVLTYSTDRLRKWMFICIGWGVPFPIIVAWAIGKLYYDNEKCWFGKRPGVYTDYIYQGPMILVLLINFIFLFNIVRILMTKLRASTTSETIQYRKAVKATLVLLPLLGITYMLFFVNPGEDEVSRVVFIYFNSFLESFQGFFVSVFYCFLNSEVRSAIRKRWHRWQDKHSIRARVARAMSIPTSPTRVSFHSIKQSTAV
In short: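 Grow clone 2 to near confluence at 37° C. under 5% CO2 in F12 (Hams) with 10% FBS and G418, harvest, and freeze in 10% DMSO. Thaw and plate at 4000 cells/well. Then proceed per the TeloHAEC method, normalising to Sauvagine 100 nM as maximum.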

## CC[C@H](C)[C@H](NC)C(=O)N[C@H](C(=O)N[C@@H](CC(C)C)C(=O)N[C@@H](CO)C(=O)N[C@@H](CC(C)C)C(=O)N[C@@H](CC(=O)O)C(=O)N[C@@H](C(=O)N1CCC[C@H]1C(=O)N[C@H](C(=O)N[C@@H](CCCCN)C(=O)N[C@@H](CC(C)C)C(=O)N[C@@H](CCCCNC(=O)CC[C@H](NC(=O)CCCCCCCCCCCCCCC(=O)O)C(=O)O)C(=O)N[C@@H](CCCCN)C(=O)N[C@H](C(=O)N[C@@H](CC(C)C)C(=O)N[C@@H](CC(C)C)C(=O)N[C@@H](CCC(=O)O)C(=O)N[C@@H](CCC(N)=O)C(=O)N[C@@H](CCC(=O)O)C(=O)N[C@@H](CCCCN)C(=O)N[C@@H](CCC(N)=O)C(=O)N[C@@H](CCCCN)C(=O)N[C@@H](CCCCN)C(=O)N[C@@H](CCC(N)=O)C(=O)N[C@@H](CCCNC(=N)N)C(=O)N[C@@H](CCC(=O)O)C(=O)N[C@@H](CCC(N)=O)C(=O)N[C@@H](C)C(=O)N[C@@H](CCC(=O)O)C(=O)N[C@H](C(=O)N[C@@H](CC(N)=O)C(=O)N[C@@H](CCC(=O)O)C(=O)N[C@@H](CCC(N)=O)C(=O)N[C@H](C(=O)N[C@@H](CC(C)C)C(=O)N[C@@H](C)C(=O)N[C@@H](CCC(N)=O)C(=O)N[C@H](C(N)=O)C(C)C)[C@@H](C)CC)[C@@H](C)O)[C@@H](C)CC)[C@@H](C)CC)C(C)C)C(C)C [compound 71] (H-[NMeI]VLSLD[dV]PIKLK([γGlu-C16 diacid])KILLEQEKQKKQREQAETNEQILAQV-NH2)
Human CRF2a receptor
  EC50: 0.21 nM
CFR1R receptor
  Emax (% I): −4 % I
  EC50: > 250 nM

## CC[C@H](C)[C@H](NC(C)=O)C(=O)N[C@H](C(=O)N[C@@H](CC(C)C)C(=O)N[C@@H](CO)C(=O)N[C@@H](CC(C)C)C(=O)N[C@@H](CC(=O)O)C(=O)N[C@@H](C(=O)N1CCC[C@H]1C(=O)N[C@H](C(=O)NCC(=O)N[C@@H](CC(C)C)C(=O)N[C@@H](CCCCNC(=O)CC[C@H](NC(=O)CCCCCCCCCCCCCCCCCCC(=O)O)C(=O)O)C(=O)N[C@@H](CCCCN)C(=O)N[C@H](C(=O)N[C@@H](CC(C)C)C(=O)N[C@@H](CC(C)C)C(=O)N[C@@H](CCC(=O)O)C(=O)N[C@@H](CCC(N)=O)C(=O)N[C@@H](CCC(=O)O)C(=O)N[C@@H](CCCCN)C(=O)N[C@@H](CCC(N)=O)C(=O)N[C@@H](CCCCN)C(=O)N[C@@H](CCCCN)C(=O)N[C@@H](CCC(N)=O)C(=O)N[C@@H](CCCNC(=N)N)C(=O)N[C@@H](CCC(=O)O)C(=O)N[C@@H](CCC(N)=O)C(=O)N[C@@H](C)C(=O)N[C@@H](CCC(=O)O)C(=O)N[C@H](C(=O)N[C@@H](CC(N)=O)C(=O)NC1(C(=O)N[C@@H](CCC(N)=O)C(=O)N[C@H](C(=O)N[C@@H](CC(C)C)C(=O)N[C@@H](C)C(=O)N[C@@H](CCC(N)=O)C(=O)N[C@H](C(N)=O)C(C)C)[C@@H](C)CC)CCNCC1)[C@@H](C)O)[C@@H](C)CC)[C@@H](C)CC)C(C)C)C(C)C [compound 227] (Ac-IVLSLD[dV]PIGLK([γGlu-C20 diacid])KILLEQEKQKKQREQAETN[Api]QILAQV-NH2)
Human CRF2a receptor
  EC50: 0.2 nM
CFR1R receptor
  Emax (% I): 97 % I

## CC[C@H](C)[C@H](NC)C(=O)N[C@H](C(=O)N[C@@H](CC(C)C)C(=O)N[C@@H](CO)C(=O)N[C@@H](CC(C)C)C(=O)N[C@@H](CC(=O)O)C(=O)N[C@@H](C(=O)N1CCC[C@H]1C(=O)N[C@H](C(=O)N[C@@H](CCCCN)C(=O)N[C@@H](CC(C)C)C(=O)N[C@@H](CCCCNC(=O)CC[C@H](NC(=O)CCCCCCCCCCCCCCC(=O)O)C(=O)O)C(=O)N[C@@H](CCCCN)C(=O)N[C@H](C(=O)N[C@@H](CC(C)C)C(=O)N[C@@H](CC(C)C)C(=O)N[C@@H](CCC(=O)O)C(=O)N[C@@H](CCC(N)=O)C(=O)N[C@@H](CCC(=O)O)C(=O)N[C@@H](CCCCN)C(=O)N[C@@H](CCC(N)=O)C(=O)N[C@@H](CCCCN)C(=O)N[C@@H](C)C(=O)N[C@@H](CCC(N)=O)C(=O)N[C@@H](CCCNC(=N)N)C(=O)N[C@@H](CCC(=O)O)C(=O)N[C@@H](CCC(N)=O)C(=O)N[C@@H](C)C(=O)N[C@@H](CCC(=O)O)C(=O)N[C@H](C(=O)N[C@@H](CC(N)=O)C(=O)NC(C)(C)C(=O)N[C@@H](CCC(N)=O)C(=O)N[C@H](C(=O)N[C@@H](CC(C)C)C(=O)N[C@@H](C)C(=O)N[C@@H](CCC(N)=O)C(=O)N[C@H](C(N)=O)C(C)C)[C@@H](C)CC)[C@@H](C)O)[C@@H](C)CC)[C@@H](C)CC)C(C)C)C(C)C [compound 74] (H-[NMeI]VLSLD[dV]PIKLK([γGlu-C16 diacid])KILLEQEKQKAQREQAETN[Aib]QILAQV-NH2)
Human CRF2a receptor
  EC50: 0.15 nM
CFR1R receptor
  Emax (% I): 7 % I
  EC50: > 250 nM

## CC[C@H](C)[C@H](NC)C(=O)N[C@H](C(=O)N[C@@H](CC(C)C)C(=O)N[C@@H](CO)C(=O)N[C@@H](CC(C)C)C(=O)N[C@@H](CC(=O)O)C(=O)N[C@@H](C(=O)N1CCC[C@H]1C(=O)N[C@H](C(=O)N[C@@H](CCCCN)C(=O)N[C@@H](CC(C)C)C(=O)N[C@@H](CCCCNC(=O)COCCOCCNC(=O)COCCOCCNC(=O)CC[C@H](NC(=O)CCCCCCCCCCCCCCCCC(=O)O)C(=O)O)C(=O)N[C@@H](CCCCN)C(=O)N[C@H](C(=O)N[C@@H](CC(C)C)C(=O)N[C@@H](CC(C)C)C(=O)N[C@@H](CCC(=O)O)C(=O)N[C@@H](CCC(N)=O)C(=O)N[C@@H](CCC(=O)O)C(=O)N[C@@H](CCCCN)C(=O)N[C@@H](CCC(N)=O)C(=O)N[C@@H](CCCCN)C(=O)N[C@@H](CCCCN)C(=O)N[C@@H](CCC(N)=O)C(=O)N[C@@H](CCCNC(=N)N)C(=O)N[C@@H](CCC(=O)O)C(=O)N[C@@H](CCC(N)=O)C(=O)N[C@@H](C)C(=O)N[C@@H](CCC(=O)O)C(=O)N[C@H](C(=O)N[C@@H](CC(N)=O)C(=O)N[C@@H](CN)C(=O)N[C@@H](CCC(N)=O)C(=O)N[C@H](C(=O)N[C@@H](CC(C)C)C(=O)N[C@@H](C)C(=O)N[C@@H](CCC(N)=O)C(=O)N[C@H](C(N)=O)C(C)C)[C@@H](C)CC)[C@@H](C)O)[C@@H](C)CC)[C@@H](C)CC)C(C)C)C(C)C [compound 115] (H-[NMeI]VLSLD[dV]PIKLK([AEEA-AEEA-γGlu-C18 diacid])KILLEQEKQKKQREQAETN[Dap]QILAQV-NH2)
Human CRF2a receptor
  EC50: 0.76 nM
CFR1R receptor
  Emax (% I): 4 % I
  EC50: > 250 nM

## CC[C@H](C)[C@H](NC)C(=O)N[C@H](C(=O)N[C@@H](CC(C)C)C(=O)N[C@@H](CO)C(=O)N[C@@H](CC(C)C)C(=O)N[C@@H](CC(=O)O)C(=O)N[C@@H](C(=O)N1CCC[C@H]1C(=O)N[C@H](C(=O)N[C@@H](CCCCN)C(=O)N[C@@H](CC(C)C)C(=O)N[C@@H](CCCCNC(=O)CC[C@H](NC(=O)CCCCCCCCCCCCCCC(=O)O)C(=O)O)C(=O)N[C@@H](CCCCN)C(=O)N[C@H](C(=O)N[C@@H](CC(C)C)C(=O)N[C@@H](CC(C)C)C(=O)N[C@@H](CCC(=O)O)C(=O)N[C@@H](CCC(N)=O)C(=O)N[C@@H](CCC(=O)O)C(=O)N[C@@H](CCCCN)C(=O)N[C@@H](CCC(N)=O)C(=O)N[C@@H](CCCCN)C(=O)N[C@@H](C)C(=O)N[C@@H](CCC(N)=O)C(=O)N[C@@H](CCCNC(=N)N)C(=O)N[C@@H](CCC(=O)O)C(=O)N[C@@H](CCC(N)=O)C(=O)N[C@@H](C)C(=O)N[C@@H](CCC(=O)O)C(=O)N[C@H](C(=O)N[C@@H](CC(N)=O)C(=O)NC1(C(=O)N[C@@H](CCC(N)=O)C(=O)N[C@H](C(=O)N[C@@H](CC(C)C)C(=O)N[C@@H](C)C(=O)N[C@@H](CCC(N)=O)C(=O)N[C@H](C(N)=O)C(C)C)[C@@H](C)CC)CCNCC1)[C@@H](C)O)[C@@H](C)CC)[C@@H](C)CC)C(C)C)C(C)C [compound 154] (H-[NMeI]VLSLD[dV]PIKLK([γGlu-C16 diacid])KILLEQEKQKAQREQAETN[Api]QILAQV-NH2)
Human CRF2a receptor
  EC50: 0.52 nM
CFR1R receptor
  Emax (% I): 24 % I
  EC50: > 250 nM
